The data set in a line: Physical and chemical characteristics: solubility in solvents. It counts as physicochemical.

Regarding “sodium salt of 7-methylthio-3-nitro [1, 2, 4] triazolo [5,1-c] [1, 2, 4] triazin-4 (1H)-one”, the solubility in acetone entry (solvent: acetone) is listed as “soluble”. Besides, the solubility in chloroform result (solvent: chloroform) is given as “insoluble”. In addition, the solubility in dimethylformamide result (solvent: dimethylformamide) is recorded as “soluble”. In addition, the solubility in dimethylsulfoxide result (solvent: dimethylsulfoxide) was “soluble”. The solubility in water entry (solvent: water) was “soluble”.

(Values after patent US20190055256A1, “ANTI-VIRAL DRUG” (DORING INTERNATIONAL GMBH, priority 2016, published 2019).)
